# Source: patent US10556907B2 (AbbVie Inc., priority 2015, dated 2020)
# Columns and labels:
# Assay in all cases: Method 1: intracellular Ca2+ release (FLIPR, Calcium 5) in recombinant CHO-K1 cells
# Type in all cases: cell-based
# [1] = target: T1, human S1PR3 receptor (Homo sapiens, UniProt Q99500); details: (1): determined with method 1; read-out: S1P3 EC50
# T1 construct: host or cells: CHO-K1
# Method in brief: (§1)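 Potency here reflects Ca2+ release in recombinant CHO-K1 cells carrying Gq/i5, measured by Calcium 5 fluorescence on FLIPR at RT in pH 7.4 Hepes-buffered HBSS with probenecid. EC50 values were fitted after scaling to phospho-fingolimod.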
# [2] = target: T2, human S1PR5 receptor (Homo sapiens, UniProt Q9H228); details: agonist potency, determined with method 1 (symbols A-D); read-out: S1P5 EC50 range
# T2 construct: host or cells: CHO-K1
# T2 sequence (Q9H228 whole entry): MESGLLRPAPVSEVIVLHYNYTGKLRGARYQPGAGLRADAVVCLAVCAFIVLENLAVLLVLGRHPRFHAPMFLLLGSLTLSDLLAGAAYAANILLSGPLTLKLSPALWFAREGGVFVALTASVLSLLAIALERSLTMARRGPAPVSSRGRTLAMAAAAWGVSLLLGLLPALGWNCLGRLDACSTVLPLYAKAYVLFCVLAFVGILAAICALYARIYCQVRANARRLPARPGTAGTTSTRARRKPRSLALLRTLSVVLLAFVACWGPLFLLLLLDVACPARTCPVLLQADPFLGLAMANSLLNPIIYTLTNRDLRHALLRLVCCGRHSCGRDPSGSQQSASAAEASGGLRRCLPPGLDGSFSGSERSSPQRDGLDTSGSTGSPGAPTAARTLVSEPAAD
# Method in brief: as §1
# [3] = target: T3, human S1PR4 receptor (Homo sapiens, UniProt O95977); details: (1): determined with method 1; read-out: S1P4 EC50
# T3 construct: host or cells: CHO-K1
# T3 sequence (O95977 1-384): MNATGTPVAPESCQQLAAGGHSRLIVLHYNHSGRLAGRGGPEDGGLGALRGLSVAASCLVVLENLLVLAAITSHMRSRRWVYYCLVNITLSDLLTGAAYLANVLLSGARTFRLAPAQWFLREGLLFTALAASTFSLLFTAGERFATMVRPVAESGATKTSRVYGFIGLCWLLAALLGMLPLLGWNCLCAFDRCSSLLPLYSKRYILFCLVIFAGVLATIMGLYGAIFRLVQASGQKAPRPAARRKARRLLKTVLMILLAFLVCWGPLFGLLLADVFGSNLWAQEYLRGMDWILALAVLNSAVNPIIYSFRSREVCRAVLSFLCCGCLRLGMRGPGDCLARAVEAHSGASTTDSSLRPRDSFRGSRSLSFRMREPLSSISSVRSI
# Method in brief: as §1
# [4] = target: T4, human S1PR1 receptor (Homo sapiens, UniProt P21453); details: (1): determined with method 1; read-out: S1P1 EC50
# T4 construct: host or cells: CHO-K1
# T4 sequence (P21453 whole entry): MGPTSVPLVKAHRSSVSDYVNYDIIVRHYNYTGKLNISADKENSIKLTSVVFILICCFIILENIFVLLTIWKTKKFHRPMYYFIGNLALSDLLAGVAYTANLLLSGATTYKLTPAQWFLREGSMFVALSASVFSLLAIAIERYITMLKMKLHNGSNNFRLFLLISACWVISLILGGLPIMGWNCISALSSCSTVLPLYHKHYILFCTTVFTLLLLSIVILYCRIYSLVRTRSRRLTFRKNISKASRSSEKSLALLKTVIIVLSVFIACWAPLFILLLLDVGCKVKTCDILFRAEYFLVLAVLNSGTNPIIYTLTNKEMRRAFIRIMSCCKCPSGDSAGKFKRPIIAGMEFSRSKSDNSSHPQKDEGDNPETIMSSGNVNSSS
# Method in brief: as §1
# T1 sequence (Q99500 whole entry): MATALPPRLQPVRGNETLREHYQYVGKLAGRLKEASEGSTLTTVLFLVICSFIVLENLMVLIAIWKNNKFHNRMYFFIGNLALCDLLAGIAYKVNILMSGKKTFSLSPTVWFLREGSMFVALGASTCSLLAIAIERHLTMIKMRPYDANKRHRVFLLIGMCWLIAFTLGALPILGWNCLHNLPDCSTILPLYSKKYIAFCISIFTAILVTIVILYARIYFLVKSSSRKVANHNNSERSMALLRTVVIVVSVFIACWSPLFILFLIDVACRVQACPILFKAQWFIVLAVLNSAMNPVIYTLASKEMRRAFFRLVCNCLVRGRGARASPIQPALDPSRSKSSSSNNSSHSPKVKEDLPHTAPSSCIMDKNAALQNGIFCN
smiles,measurement,setting,value
"O=C(O)C1CC(N2CCc3nc(C#Cc4ccc(F)cc4)ccc3C2)C1 (stereo not shown) [Compound 123, 3-(2-((4-fluorophenyl)ethynyl)-7,8-dihydro-1,6-naphthyridin-6(5H)-yl)cyclobutanecarboxylic acid]",EC50,[1],> 1000 nM
same,EC50,[2],1000 to 10000 nM
same,EC50,[3],> 1000 nM
same,EC50,[4],> 1000 nM
"CC(C)c1ccc(C#Cc2ccc3c(n2)CCN(C2CC(C(=O)O)C2)C3)cc1 (stereo not shown) [Compound 124, 3-(2-((4-isopropylphenyl)ethynyl)-7,8-dihydro-1,6-naphthyridin-6(5H)-yl)cyclobutanecarboxylic acid]",EC50,[1],> 1000 nM
same,EC50,[2],1000 to 10000 nM
same,EC50,[3],> 1000 nM
same,EC50,[4],> 1000 nM
"O=C(O)C1CC(N2CCc3nc(C#Cc4ccc(OCc5ccccc5)cc4)ccc3C2)C1 (stereo not shown) [Compound 125, 3-(2-((4-(benzyloxy)phenyl)ethynyl)-7,8-dihydro-1,6-naphthyridin-6(5H)-yl)cyclobutanecarboxylic acid]",EC50,[1],> 1000 nM
same,EC50,[2],100 to 1000 nM
same,EC50,[3],> 1000 nM
same,EC50,[4],> 1000 nM
"O=C(O)C1CC(N2CCc3nc(C#Cc4ccccc4Cl)ccc3C2)C1 (stereo not shown) [Compound 126, 3-(2-((2-chlorophenyl)ethynyl)-7,8-dihydro-1,6-naphthyridin-6(5H)-yl)cyclobutanecarboxylic acid]",EC50,[1],> 1000 nM
same,EC50,[2],1000 to 10000 nM
same,EC50,[3],> 1000 nM
same,EC50,[4],> 1000 nM
"O=C(O)C1CC(N2CCc3nc(C#Cc4cc(F)cc(F)c4)ccc3C2)C1 (stereo not shown) [Compound 127, 3-(2-((3,5-difluorophenyl)ethynyl)-7,8-dihydro-1,6-naphthyridin-6(5H)-yl)cyclobutanecarboxylic acid]",EC50,[1],> 1000 nM
same,EC50,[2],1000 to 10000 nM
same,EC50,[3],> 1000 nM
same,EC50,[4],> 1000 nM
"O=C(O)C1CC(N2CCc3nc(C#Cc4cccc(Cl)c4)ccc3C2)C1 (stereo not shown) [Compound 128, 3-(2-((3-chlorophenyl)ethynyl)-7,8-dihydro-1,6-naphthyridin-6(5H)-yl)cyclobutanecarboxylic acid]",EC50,[1],> 1000 nM
same,EC50,[2],1000 to 10000 nM
same,EC50,[3],> 1000 nM
same,EC50,[4],> 1000 nM
"O=C(O)CCN1CCc2nc(-c3ccc(OCc4cccc(F)c4)cc3)ccc2C1 [Compound 133, 3-(2-(4-((3-fluorobenzyl)oxy)phenyl)-7,8-dihydro-1,6-naphthyridin-6(5H)-yl)propanoic acid]",EC50,[1],> 1000 nM
same,EC50,[2],< 10 nM
same,EC50,[3],> 1000 nM
same,EC50,[4],> 1000 nM
"O=C(O)CCN1CCc2nc(-c3ccc(OCc4cccc(F)c4)cc3F)ccc2C1 [Compound 145, 3-(2-(2-fluoro-4-((3-fluorobenzyl)oxy)phenyl)-7,8-dihydro-1,6-naphthyridin-6(5H)-yl)propanoic acid]",EC50,[1],> 1000 nM
same,EC50,[2],10 to 100 nM
same,EC50,[3],> 1000 nM
same,EC50,[4],> 1000 nM
"O=C(O)CCN1CCc2nc(-c3ccc(OCc4ccccc4OC(F)(F)F)cc3)ccc2C1 [Compound 155, 3-(2-(4-((2-trifluoromethoxybenzyl)oxy)phenyl)-7,8-dihydro-1,6-naphthyridin-6(5H)-yl)propanoic acid]",EC50,[1],> 1000 nM
same,EC50,[2],< 10 nM
same,EC50,[3],> 1000 nM
same,EC50,[4],> 1000 nM
"CC(C)(C)c1ccc(COc2ccc(-c3ccc4c(n3)CCN(CCC(=O)O)C4)cc2)cc1 [Compound 156, 3-(2-(4-((4-(tert-butyl)benzyl)oxy)phenyl)-7,8-dihydro-1,6-naphthyridin-6(5H)-yl)propanoic acid]",EC50,[1],> 1000 nM
same,EC50,[2],< 10 nM
same,EC50,[3],> 1000 nM
same,EC50,[4],> 1000 nM
"O=C(O)CCN1CCc2nc(-c3ccc(OCc4cccc(C(F)(F)F)c4)cc3)ccc2C1 [Compound 157, 3-(2-(4-((3-trifluoromethylbenzyl)oxy)phenyl)-7,8-dihydro-1,6-naphthyridin-6(5H)-yl)propanoic acid]",EC50,[1],> 1000 nM
same,EC50,[2],< 10 nM
same,EC50,[3],> 1000 nM
same,EC50,[4],> 1000 nM
"O=C(O)CCN1CCc2nc(-c3ccc(OCc4cccc(C(F)F)c4)cc3)ccc2C1 [Compound 159, 3-(2-(4-((3-difluoromethylbenzyl)oxy)phenyl)-7,8-dihydro-1,6-naphthyridin-6(5H)-yl)propanoic acid]",EC50,[1],> 1000 nM
same,EC50,[2],< 10 nM
same,EC50,[3],> 1000 nM
same,EC50,[4],> 1000 nM
"Cc1cc(COc2ccc(-c3ccc4c(n3)CCN(CCC(=O)O)C4)cc2)cc(OC(F)(F)F)c1 [Compound 160, 3-(2-(4-((3-trifluoromethoxy-5-(methyl)benzyl)oxy)phenyl)-7,8-dihydro-1,6-naphthyridin-6(5H)-yl)propanoic acid]",EC50,[1],> 1000 nM
same,EC50,[2],10 to 100 nM
same,EC50,[3],> 1000 nM
same,EC50,[4],> 1000 nM
"Cc1cc(OC(F)(F)F)ccc1COc1ccc(-c2ccc3c(n2)CCN(CCC(=O)O)C3)cc1 [Compound 161, 3-(2-(4-((2-methyl-4-(trifluoromethoxy)benzyl)oxy)phenyl)-7,8-dihydro-1,6-naphthyridin-6(5H)-yl)propanoic acid]",EC50,[1],> 1000 nM
same,EC50,[2],< 10 nM
same,EC50,[3],> 1000 nM
same,EC50,[4],> 1000 nM
"O=C(O)CCN1CCc2nc(-c3ccc(OCc4ccc5c(c4)CCC5)cc3)ccc2C1 [Compound 162, 3-(2-(4-((5-indanyl)methoxy)phenyl)-7,8-dihydro-1,6-naphthyridin-6(5H)-yl)propanoic acid]",EC50,[1],> 1000 nM
same,EC50,[2],< 10 nM
same,EC50,[3],> 1000 nM
same,EC50,[4],> 1000 nM
"O=C(O)CCN1CCc2nc(-c3ccc(OCc4ccccc4OC(F)F)cc3)ccc2C1 [Compound 163, 3-(2-(4-((2-difluoromethoxybenzyl)oxy)phenyl)-7,8-dihydro-1,6-naphthyridin-6(5H)-yl)propanoic acid]",EC50,[1],> 1000 nM
same,EC50,[2],< 10 nM
same,EC50,[3],> 1000 nM
same,EC50,[4],> 1000 nM
"O=C(O)CCN1CCc2nc(-c3ccc(OCc4ccccc4C(F)F)cc3)ccc2C1 [Compound 165, 3-(2-(4-((2-difluoromethylbenzyl)oxy)phenyl)-7,8-dihydro-1,6-naphthyridin-6(5H)-yl)propanoic acid]",EC50,[1],> 1000 nM
same,EC50,[2],< 10 nM
same,EC50,[3],> 1000 nM
same,EC50,[4],> 1000 nM
"O=C(O)CCN1CCc2nc(-c3ccc(OCc4ccc(C(F)F)cc4)cc3)ccc2C1 [Compound 166, 3-(2-(4-((4-difluoromethylbenzyl)oxy)phenyl)-7,8-dihydro-1,6-naphthyridin-6(5H)-yl)propanoic acid]",EC50,[1],> 1000 nM
same,EC50,[2],< 10 nM
same,EC50,[3],> 1000 nM
same,EC50,[4],> 1000 nM
"Cc1cc(-c2ccc3c(n2)CCN(CCC(=O)O)C3)ccc1OCc1ccc(C(F)(F)F)cc1 [Compound 167, 3-(2-(3-methyl-4-((4-(trifluoromethyl)benzyl)oxy)phenyl)-7,8-dihydro-1,6-naphthyridin-6(5H)-yl)propanoic acid]",EC50,[1],> 1000 nM
same,EC50,[2],< 10 nM
same,EC50,[3],> 1000 nM
same,EC50,[4],> 1000 nM
"Cc1cc(-c2ccc3c(n2)CCN(CCC(=O)O)C3)ccc1OCc1ccc(Cl)cc1 [Compound 169, 3-(2-(4-((4-chlorobenzyl)oxy)-3-methylphenyl)-7,8-dihydro-1,6-naphthyridin-6(5H)-yl)propanoic acid]",EC50,[1],> 1000 nM
same,EC50,[2],< 10 nM
same,EC50,[3],> 1000 nM
same,EC50,[4],> 1000 nM
"Cc1cc(-c2cc3c(cn2)CN(CCC(=O)O)CC3)ccc1OCc1ccc(Cl)cc1 [Compound 172, 3-(6-(4-((4-chlorobenzyl)oxy)-3-methylphenyl)-3,4-dihydro-2,7-naphthyridin-2(1H)-yl)propanoic acid]",EC50,[1],> 1000 nM
same,EC50,[2],< 10 nM
same,EC50,[3],> 1000 nM
same,EC50,[4],> 1000 nM
"Cc1cc(-c2cc3c(cn2)CN(CCC(=O)O)CC3)ccc1OCc1ccc(C(F)(F)F)cc1 [Compound 173, 3-(6-((4(4-trifluoromethylbenzyl)oxy)-3-methylphenyl)-3,4-dihydro-2,7-naphthyridin-2(1H)-yl)propanoic acid]",EC50,[1],> 1000 nM
same,EC50,[2],< 10 nM
same,EC50,[3],> 1000 nM
same,EC50,[4],> 1000 nM
"O=C(O)CCN1CCc2cc(-c3ccc(OCc4ccc(Cl)cc4)cc3)ncc2C1 [Compound 174, 3-(6-((4(4-chlorobenzyl)oxy)phenyl)-3,4-dihydro-2,7-naphthyridin-2(1H)-yl)propanoic acid]",EC50,[1],> 1000 nM
same,EC50,[2],< 10 nM
same,EC50,[3],> 1000 nM
same,EC50,[4],> 1000 nM
"O=C(O)CCN1CCc2cc(-c3ccc(OCc4cccc(Cl)c4)cc3)ncc2C1 [Compound 175, 3-(6-(4-((3-chlorobenzyl)oxy)phenyl)-3,4-dihydro-2,7-naphthyridin-2(1H)-yl)propanoic acid]",EC50,[1],> 1000 nM
same,EC50,[2],< 10 nM
same,EC50,[3],> 1000 nM
same,EC50,[4],> 1000 nM
"O=C(O)CCN1CCc2cc(-c3ccc(OCc4cccc(F)c4)cc3)ncc2C1 [Compound 176, 3-(6-(4-((3-fluorobenzyl)oxy)phenyl)-3,4-dihydro-2,7-naphthyridin-2(1H)-yl)propanoic acid]",EC50,[1],> 1000 nM
same,EC50,[2],< 10 nM
same,EC50,[3],> 1000 nM
same,EC50,[4],> 1000 nM
